The source of these data is patent publication US7427627B2, “N-(4-(4-methylthiazol-5-yl) pyrimidin-2-yl)-N-phenylamines as antiproliferative compounds” (Cyclacel Limited, priority 2001, dated 2008).

Like-named read-outs stand apart in the source and are kept apart here.

One assay deals with HT29. Nature of the assay: 72-h MTT cytotoxicity assay, HT29. The format is cell-based. The conditions noted are these: Homo sapiens, HT-29, read-out: 72-h MTT in vitro IC50 (μM) HT29; Table 1; 72 h. How it is done:
(§1) The compounds from the examples above were subjected to a standard cellular proliferation assay using human tumour cell lines obtained from the ATCC (American Type Culture Collection, 10801 University Boulevard, Manessas, Va. 20110-2209, USA). Standard 72-h MTT (thiazolyl blue; 3-[4,5-dimethylthiazol-2-yl]-2,5-diphenyltetrazolium bromide) assays were performed (Haselsberger, K.; Peterson, D. C.; Thomas, D. G.; Darling, J. L. Anti Cancer Drugs 1996, 7, 331-8; Loveland, B. E.; Johns, T. G.; Mackay, I. R.; Vaillant, F.; Wang, Z. X.; Hertzog, P. J. Biochemistry International 1992, 27, 501-10). In short: cells were seeded into 96-well plates according to doubling time and incubated overnight at 37° C. Test compounds were made up in DMSO and a 1/3 dilution series prepared in 100 μL cell media, added to cells (in triplicates) and incubated for 72 ho at 37° C. MTT was made up as a stock of 5 mg/mL in cell media and filter-sterilised. Media was removed from cells followed by a wash with 200 μL PBS. MTT solution was then added at 20 μL per well and incubated in the dark at 37° C. for 4 h. MTT solution was removed and cells again washed with 200 μL PBS. MTT dye was solubilised with 200 μL per well of DMSO with agitation.

Another assay relates to A549. Description: 72-h MTT cytotoxicity assay, A549. The format is cell-based, human. The settings on record: Table 1, 72 h. How it is done: In short: cells were seeded into 96-well plates according to doubling time and incubated overnight at 37° C. Test compounds were made up in DMSO and a 1/3 dilution series prepared in 100 μL cell media, added to cells (in triplicates) and incubated for 72 ho at 37° C. MTT was made up as a stock of 5 mg/mL in cell media and filter-sterilised. Media was removed from cells followed by a wash with 200 μL PBS. MTT solution was then added at 20 μL per well and incubated in the dark at 37° C. for 4 h. MTT solution was removed and cells again washed with 200 μL PBS. MTT dye was solubilised with 200 μL per well of DMSO with agitation.
(Tetrazolium dyes change colour on reduction, which living cells bring about.)

In a further assay the test system is Saos-2. Description: 72-h MTT cytotoxicity assay, Saos-2. Format: cell-based. The conditions noted are these: Homo sapiens, SAOS-2, read-out: 72-h MTT in vitro IC50 (μM) Saos-2; Table 1; 72 h. The protocol: as §1
The target in the next assay is CDK4/cyclin D1 (Homo sapiens, UniProt P11802). Nature of the assay: Kinase assay CDK4/cyclin D1.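 Note: Enzyme: His6-tagged recombinant human CDK4 produced in baculovirus-infected Sf9 insect cells and purified by metal-chelate chromatography.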
A further assay deals with T1, CDK2/cyclin E (Homo sapiens, UniProt P24941).
T1 construct: His6
Nature of the assay: Kinase assay CDK2/cyclin E. Format: biochemical. The settings on record: Table 1; read-out: Kinase inhibition, IC50 (μM) CDK2/E.

The mark [1] stands for this setting: Homo sapiens, A549, read-out: 72-h MTT in vitro IC50 (μM) A549.
The mark [2] stands for this setting: read-out: Kinase inhibition, IC50 (μM) CDK4/D1, Table 1.

Chain of CDK4/cyclin D1 (P11802 whole entry): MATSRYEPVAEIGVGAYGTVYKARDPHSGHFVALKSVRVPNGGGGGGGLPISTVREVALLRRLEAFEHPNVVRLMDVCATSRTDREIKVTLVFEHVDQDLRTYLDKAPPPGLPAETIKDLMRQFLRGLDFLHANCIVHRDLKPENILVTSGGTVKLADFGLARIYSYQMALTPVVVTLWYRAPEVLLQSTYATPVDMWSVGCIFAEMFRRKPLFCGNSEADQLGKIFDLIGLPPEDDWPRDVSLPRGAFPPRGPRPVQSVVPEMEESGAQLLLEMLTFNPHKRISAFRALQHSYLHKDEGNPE
Chain of CDK4/cyclin D1 (P24385 whole entry partner): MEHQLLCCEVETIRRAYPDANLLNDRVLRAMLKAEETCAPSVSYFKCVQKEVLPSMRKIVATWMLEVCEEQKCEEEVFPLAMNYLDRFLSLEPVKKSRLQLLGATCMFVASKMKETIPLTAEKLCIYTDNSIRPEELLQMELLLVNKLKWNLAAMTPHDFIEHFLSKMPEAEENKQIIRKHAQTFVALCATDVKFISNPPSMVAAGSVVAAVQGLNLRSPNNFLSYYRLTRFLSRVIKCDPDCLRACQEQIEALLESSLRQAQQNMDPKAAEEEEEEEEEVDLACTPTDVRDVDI

For `Cc1nc(N)sc1-c1ccnc(Nc2cccc([N+](=O)[O-])c2)n1` [Compound 1, [4-(2-Amino-4-methyl-thiazol-5-yl)-pyrimidin-2-yl]-(3-nitro-phenyl)-amine], the values for the IC50 in the assay with HT29, in the assay with A549 (read-out: 72-h MTT in vitro IC50 (μM) A549) and in the assay with Saos-2 were 0.34 µM, 0.22 µM and 0.42 µM, respectively.

Take `Cc1nc(N)sc1-c1ccnc(Nc2ccc(N(C)C)cc2)n1` [Compound 2, N-[4-(2-Amino-4-methyl-thiazol-5-yl)-pyrimidin-2-yl]-N^1,N^1-dimethyl-benzene-1,4-diamine]: the IC50 amounted to 2.88 µM in the assay on HT29, 2.37 µM in the assay with A549 (setting [1]) and 1.54 µM in the assay with Saos-2.

Take `Cc1nc(N)sc1-c1ccnc(Nc2ccc(Cl)cc2)n1` [Compound 3, [4-(2-Amino-4-methyl-thiazol-5-yl)-pyrimidin-2-yl]-(4-chloro-phenyl)-amine]: the IC50 worked out at 0.46 µM on CDK4/cyclin D1; 4.01 µM with HT29; 0.43 µM at CDK2/cyclin E; 2.94 µM in the assay on A549 (setting [1]); 2.61 µM in the assay with Saos-2.

Take `Cc1nc(N)sc1-c1ccnc(Nc2ccc(C(F)(F)F)cc2)n1` [Compound 7, [4-(2-Amino-4-methyl-thiazol-5-yl)-pyrimidin-2-yl]-(4-trifluoromethyl-phenyl)-amine]: the IC50 on CDK4/cyclin D1 (setting [2]) was 5.83 µM; in the assay on HT29, 1.26 µM; with A549 (setting [1]), 1.03 µM; in the assay on Saos-2, 0.65 µM.

As to `COc1ccc(Nc2nccc(-c3sc(N)nc3C)n2)cc1` [Compound 8, [4-(2-Amino-4-methyl-thiazol-5-yl)-pyrimidin-2-yl]-(4-methoxy-phenyl)-amine], the IC50 against CDK4/cyclin D1 came to 0.42 µM; in the assay on HT29, 2.71 µM; at CDK2/cyclin E, 0.34 µM; with A549 (setting [1]) it was 1.55 µM; in the assay with Saos-2 it was 1.32 µM.

As to `Cc1nc(N)sc1-c1ccnc(Nc2cccc(Cl)c2)n1` [Compound 9, [4-(2-Amino-4-methyl-thiazol-5-yl)-pyrimidin-2-yl]-(3-chloro-phenyl)-amine], the IC50 on CDK4/cyclin D1 (setting [2]) stood at 0.07 µM; in the assay on HT29, 0.79 µM; at CDK2/cyclin E it was 0.02 µM; in the assay with A549 (setting [1]) it was 0.55 µM; in the assay on Saos-2 it was 0.43 µM.

`Cc1nc(N)sc1-c1ccnc(Nc2cccc(O)c2)n1` [Compound 13, 3-[4-(2-Amino-4-methyl-thiazol-5-yl)-pyrimidin-2-ylamino]-phenol]: the IC50 against CDK4/cyclin D1 turned out to be 0.45 µM; in the assay on HT29 it was 2.87 µM; at CDK2/cyclin E it was 0.04 µM; in the assay with A549 (setting [1]) it was 0.95 µM; in the assay with Saos-2 it was 0.52 µM.

For `Cc1nc(N)sc1-c1ccnc(Nc2ccc(I)c([N+](=O)[O-])c2)n1` [Compound 14, [4-(2-Amino-4-methyl-thiazol-5-yl)-pyrimidin-2-yl]-(4-iodo-3-nitro-phenyl)-amine], the IC50 was determined as 0.64 µM at CDK4/cyclin D1; 0.28 µM in the assay with HT29; 0.2 µM at CDK2/cyclin E; 0.29 µM with A549 (setting [1]); 0.31 µM in the assay on Saos-2.

In the case of `Cc1nc(C)c(-c2ccnc(Nc3ccc(CCO)cc3)n2)s1` [Compound 21, 2-{4-[4-(2,4-Dimethyl-thiazol-5-yl)-pyrimidin-2-ylamino]-phenyl}-ethanol], the IC50 was found to be 3.28 µM on CDK4/cyclin D1 (setting [2]), 3.61 µM in the assay on HT29, 2.79 µM with A549 (setting [1]) and 4.37 µM in the assay with Saos-2.

As to `COc1ccc(Nc2nccc(-c3sc(C)nc3C)n2)cc1OC` [Compound 23, (3,4-Dimethoxy-phenyl)-[4-(2,4-dimethyl-thiazol-5-yl)-pyrimidin-2-yl]-amine], the IC50 on CDK4/cyclin D1 (setting [2]) worked out at 1.06 µM; with HT29, 1.17 µM; at CDK2/cyclin E, 0.03 µM; in the assay with A549 (setting [1]), 1.57 µM; in the assay with Saos-2, 2.02 µM.

For `COc1ccc(Nc2nccc(-c3sc(C)nc3C)n2)cc1O` [Compound 24, 5-[4-(2,4-Dimethyl-thiazol-5-yl)-pyrimidin-2-ylamino]-2-methoxy-phenol], the IC50 was 1.68 µM at CDK4/cyclin D1 (setting [2]), 5.47 µM with HT29, 0.44 µM with A549 (setting [1]) and 0.16 µM in the assay with Saos-2.

Take `COc1ccc(Nc2nccc(-c3sc(C)nc3C)n2)cc1N(C)C` [Compound 28, N^1-[4-(2,4-Dimethyl-thiazol-5-yl)-pyrimidin-2-yl]-4-methoxy-N^3,N^3-dimethyl-benzene-1,3-diamine]: the IC50 against CDK4/cyclin D1 was 2.88 µM; in the assay with HT29, 2.23 µM; on CDK2/cyclin E, 0.56 µM; in the assay with A549 (setting [1]), 2.07 µM; in the assay with Saos-2 it was 1.59 µM.

As for `CNc1nc(C)c(-c2ccnc(Nc3ccc(N(C)C)cc3)n2)s1` [Compound 29, N,N-Dimethyl-N′-[4-(4-methyl-2-methylamino-thiazol-5-yl)-pyrimidin-2-yl]-benzene-1,4-diamine], the IC50 was found to be 0.99 µM against CDK4/cyclin D1; 0.6 µM in the assay with HT29; 0.32 µM at CDK2/cyclin E; 0.4 µM in the assay on A549 (setting [1]); 0.8 µM in the assay with Saos-2.

Regarding `CNc1nc(C)c(-c2ccnc(Nc3ccc(I)c([N+](=O)[O-])c3)n2)s1` [Compound 30, (4-Iodo-3-nitro-phenyl)-[4-(4-methyl-2-methylamino-thiazol-5-yl)-pyrimidin-2-yl]-amine], the IC50 at CDK4/cyclin D1 is 0.25 µM; with HT29, 1.07 µM; on CDK2/cyclin E, 0.12 µM; with A549 (setting [1]), 0.94 µM; with Saos-2, 2.31 µM.

Take `Cc1c(-c2ccnc(Nc3ccc(O)cc3)n2)sc(=O)n1C` [Compound 31, 5-[2-(4-Hydroxy-phenylamino)-pyrimidin-4-yl]-3,4-dimethyl-3H-thiazol-2-one]: the figures for the IC50 in the assay with HT29, with A549 (setting [1]) and with Saos-2 were 0.87 µM, 0.29 µM and 0.4 µM, respectively.

`Cc1c(-c2ccnc(Nc3cccc([N+](=O)[O-])c3)n2)sc(=O)n1C` [Compound 32, 3,4-Dimethyl-5-[2-(3-nitro-phenylamino)-pyrimidin-4-yl]-3H-thiazol-2-one]: the IC50 with HT29 was 0.01 µM; in the assay on A549 (setting [1]) it was 0.01 µM; in the assay with Saos-2, 0.1 µM.

Regarding `Cc1c(-c2ccnc(Nc3ccc(F)cc3)n2)sc(=O)n1C` [Compound 34, 5-[2-(4-Fluoro-phenylamino)-pyrimidin-4-yl]-3,4-dimethyl-3H-thiazol-2-one], the IC50 came to 0.38 µM in the assay with HT29, 0.51 µM with A549 (setting [1]) and 1.27 µM in the assay on Saos-2.

With `Cc1cc(Nc2nccc(-c3sc(=O)n(C)c3C)n2)ccc1Cl` [Compound 39, 5-[2-(4-Chloro-3-methyl-phenylamino)-pyrimidin-4-yl]-3,4-dimethyl-3H-thiazol-2-one], the results for the IC50 at CDK4/cyclin D1 (setting [2]) and at CDK2/cyclin E were 17.9 µM and 1.18 µM, respectively.

On to `Cc1cc(Nc2nccc(-c3sc(=O)n(C)c3C)n2)ccc1F` [Compound 41, 5-[2-(4-Fluoro-3-methyl-phenylamino)-pyrimidin-4-yl]-3,4-dimethyl-3H-thiazol-2-one], for which the IC50 in the assay with HT29 is 2.19 µM; with A549 (setting [1]), 2.41 µM; in the assay on Saos-2, 7.98 µM.

As to `Cc1ccc(Nc2nccc(-c3sc(=O)n(C)c3C)n2)cc1[N+](=O)[O-]` [Compound 42, 3,4-Dimethyl-5-[2-(4-methyl-3-nitro-phenylamino)-pyrimidin-4-yl]-3H-thiazol-2-one], the figures for the IC50 in the assay on HT29, in the assay on A549 (setting [1]) and with Saos-2 were 0.004 µM, 0.003 µM and 0.005 µM, respectively.

With `Cc1c(-c2ccnc(Nc3ccc(N(C)C)cc3)n2)sc(=O)n1C` [Compound 43, 5-[2-(4-Dimethylamino-phenylamino)-pyrimidin-4-yl]-3,4-dimethyl-3H-thiazol-2-one], the IC50 against CDK4/cyclin D1 stood at 3.82 µM; in the assay with HT29 it was 1.69 µM; with A549 (setting [1]) it was 2.2 µM; in the assay with Saos-2 it was 3.36 µM.

For `Cc1nc(N(C)C)sc1-c1ccnc(Nc2cccc([N+](=O)[O-])c2)n1` [Compound 52, [4-(2-Dimethylamino-4-methyl-thiazol-5-yl)-pyrimidin-2-yl]-(3-nitro-phenyl)-amine], the IC50 on CDK4/cyclin D1 (Kinase inhibition, IC50 (μM) CDK4/D1, Table 1) came to 10 µM; in the assay on HT29, 3.41 µM; in the assay with A549 (setting [1]) it was 2.47 µM; in the assay with Saos-2, 2.57 µM.

`Cc1nc(NCCO)sc1-c1ccnc(Nc2ccc(F)cc2)n1` [Compound 59, 2-{5-[2-(4-Fluoro-phenylamino)-pyrimidin-4-yl]-4-methyl-thiazol-2-ylamino}-ethanol]: the IC50 on CDK4/cyclin D1 stood at 15 µM; at CDK2/cyclin E, 0.08 µM.
